Experimental data reported in patent US11865125B2, “APKC inhibitors and methods of treating a neurodegenerative disease or disorder” (UNIVERSITY OF SOUTH FLORIDA, priority 2016, dated 2024).
pIC50: −log10 of the molar value. Entries after “also recorded” stand apart in the source; their conditions may differ. Where two headings read alike, the source gives them in different places.

How the values were obtained:
aPKC [1] = target: T1, aPKC (Homo sapiens, UniProt P41743); experiment: aPKC activity in LA1-5s neuroblastoma cells; assay type: cell-based; design: endogenous in cells; host or cells: LA1-5s human neuroblastoma cells
T1 sequence (P41743 2-596): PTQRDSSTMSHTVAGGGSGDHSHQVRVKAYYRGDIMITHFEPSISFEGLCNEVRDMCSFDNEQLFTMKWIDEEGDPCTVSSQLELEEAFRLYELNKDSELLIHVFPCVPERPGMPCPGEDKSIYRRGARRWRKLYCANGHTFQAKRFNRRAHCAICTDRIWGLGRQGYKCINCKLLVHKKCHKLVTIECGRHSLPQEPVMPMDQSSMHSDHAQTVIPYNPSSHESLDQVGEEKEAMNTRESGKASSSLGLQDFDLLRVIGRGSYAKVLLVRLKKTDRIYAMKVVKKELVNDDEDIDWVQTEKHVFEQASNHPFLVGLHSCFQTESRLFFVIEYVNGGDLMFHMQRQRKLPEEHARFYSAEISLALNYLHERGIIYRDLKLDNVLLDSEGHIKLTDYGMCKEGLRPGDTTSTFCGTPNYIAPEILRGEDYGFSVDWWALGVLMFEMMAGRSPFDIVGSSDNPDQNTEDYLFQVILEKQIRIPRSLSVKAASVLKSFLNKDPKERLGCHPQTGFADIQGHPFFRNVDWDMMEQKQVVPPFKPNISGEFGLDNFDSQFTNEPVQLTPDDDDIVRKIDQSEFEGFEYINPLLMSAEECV

aPKC [2] = target: T1, aPKC; design: endogenous in cells; conditions: previously seen, stated as similar; read-out: IC50, inhibition of aPKC activity in isolated human hepatocytes; cited from earlier work
Aβ1-40/42 = Aβ1-40/42 levels in LA1-5s neuroblastoma cells; assay type: cell-based, human; conditions: LA1-5s cells
Method: (§1) Relative bar values in panel a are mean±SEM of 6 determinations. Asterisks: *, P<0.05; **, P<0.01; ***, P<0.001 (ANOVA). Values in panel b are means of 2-4 determinations.
(§2) Shown here are Mean±SEM (N=4) values relative to the mean initial basal or insulin-stimulated level of indicated immunoreactive protein/peptide. Asterisks: *, P<0.05; **, P<0.01; ***, P<0.001 (ANOVA).
(§3) Western Analyses. As described, Western analyses were conducted with rabbit antisera or mouse monoclonal antibodies (mMab), using: anti-aPKC (Santa Cruz Biotechnologies, Santa Cruz, CA); anti-phospho-threonine-560/555-PKC-ζ/λ/ι (Invitrogen, Carlsbad, CA); anti-p-serine-256-FoxO1 and anti-FoxO1 (Abnova, Walnut, CA); anti-Akt (mMab), anti-phospho-serine-473-Akt, anti-phospho-serine-9-GSK3P anti-GSK313, anti-phospho-serine-253-FoxO3a, anti-FoxO3a, anti-phospho-serine-256-FoxO1, anti-phospho-serine-193-FoxO4; anti-FoxO1, anti-phospho-serine-2448-mTOR, anti-mTOR, anti-β-amyloid (anti-5-10 kDa-Aβ1-40/42) and anti-amyloid precursor protein (anti-120 kDa-APP) (Cell Signaling Technologies, Danvers, MA); and anti-phospho-serine-202-tau, anti-phospho-threonine-231-tau (Gene Tex, Irvine, CA). Samples from experimental groups were compared on the same blots, and routinely checked with loading controls. Note that: insulin-sensitive 70 kDa aPKC is largely PKC-ζ in mouse brain and orthologous PKC-ι (98% aa homology) in monkey and other primate brains; brain PKC-ζ exists largely as a 50 kDa moiety that, lacking a regulatory domain, is constitutively-active and unresponsive to insulin.

[3] = serum insulin levels / hyperinsulinemia in insulin-resistant mice; assay type: in vivo, mouse; conditions: Het-MλKO mice
Text: (§4) Mouse Studies. Brain samples were obtained from normal and insulin-resistant mice and monkeys used previously, and includes mice originally used in studies of insulin signaling and resistance in liver: (a) 4-6 month old C57Bl/6 mice used in studies of high-fat-feeding [USF Vivarium] [6]; 4-6 month-old male C57Bl/6 ob/ob and lean ob+ mice (Jackson Labs, Bar Harbor, Maine); and (c) 10-12 month-old C57Bl/6 Het-MλKO mice [USF Vivarium] [8]. […] Where indicated normal mice were given a single SC injection of saline or saline containing 1.5 mg/kg ICAPP to follow time-related alterations in brain signaling factors. Where indicated, mice were treated intraperitoneally (IP) with insulin (1 U/kg body weight) or vehicle 15-min before euthanization by administration of Xylazine/Ketamine, followed by whole body perfusion with phosphate-buffered saline and rapid removal of brain and other tissues.
(§5) Where indicated, mice were randomly treated with insulin (1 unit/kg/bw i.p.) 15 min before being euthanized by administration of xylazine/ketamine, followed by whole-body perfusion with PBS and rapid removal of brain and other tissues.

Akt [4] = experiment: brain Akt phosphorylation/activity in mice; assay type: in vivo, mouse
Text: as §4
Tissue Preparations. As described, mouse brains were hemisected sagittally, and one-half was frozen in liquid N2, stored at −80° C., and samples thereof were homogenized in buffer containing 0.25M sucrose, 20 mM Tris/HCl (pH, 7.5), 2 mmol/l EGTA, 2 mM EDTA, 1 mM phenlysulfonoylfluoride (PMSF), 20 μg/ml leupeptin, 10 μg/ml aprotinin, 2 mM Na4P2O7, 2 mM Na3VO4, 2 mM NaF, and 1 μM microcystin, and then supplemented with 1% TritonX-100, 0.6% Nonidet and 150 mM NaCl.
as §3, §5

Akt [5] = experiment: Akt activity in LA1-5s neuroblastoma cells; assay type: cell-based, human; conditions: LA1-5s cells, 200 nM insulin
Method: as §1, §2, §3

[6] = passage of the blood brain barrier; assay type: in vivo, mouse; conditions: intact mice, inferred from inhibition of brain PKC-λ/ι
[7] = Het-MλKO mice, reported previously; cited from earlier work

## NC(=O)c1ncn([C@@H]2C[C@H](COP(=O)(O)O)[C@@H](O)[C@H]2O)c1N [ICAPP]
aPKC [1]; LA1-5s cells
  effect on metformin-induced increase in aPKC activity: dose-dependently inhibited
aPKC [1]; LA1-5s human neuroblastoma cells, 200 nM insulin, read-out: IC50, inhibition of insulin-stimulated aPKC activity
  pIC50: 8.00 to 9.00
aPKC [2]
  pIC50: 8.00 to 9.00
Aβ1-40/42
  effect on metformin-induced increase in Aβ1-40/42: dose-dependently inhibited
Aβ1-40/42; 200 nM insulin
  effect on insulin-stimulated Aβ1-40/42 levels: dose-dependent decreases
[3]
  hyperinsulinemia: hyperinsulinemia was corrected; also recorded: fully reversed
Akt [4]; Het-MλKO mice, s.c. once daily for 8 days (ICAPP 0.4 mg/kg, ATM 60 mg/kg)
  resting/basal brain Akt activity: diminished; also recorded: reductions of resting/basal activities of brain Akt and aPKC, comparable to those seen with ATM treatment
Akt [4]; Het-MλKO mice, s.c. once daily for 8 days (ICAPP 0.4 mg/kg, ATM 60 mg/kg), insulin 1 U/kg i.p. 15 min
  acute insulin activation of brain Akt: restored ability of insulin to acutely activate Akt; also recorded: insulin was fully able to fully activate Akt
Akt [4]; normal mice, single s.c. dose of ICAPP 1.5 mg/kg, insulin 1 U/kg i.p. 15 min before killing
  insulin-stimulated increases in brain Akt activity: without altering; also recorded: without inhibiting insulin effects on Akt
Akt [5]
  effect on stimulatory effects of insulin on Akt activity: without altering
[6]
  passage of the blood brain barrier (BBB): can cross the BBB
[7]
  serum insulin levels / hyperinsulinemia: fully/sufficiently improved; also recorded: reduced serum insulin levels in Het-MλKO mice to normal
